The values that follow come from PMC10224356, “Trisubstituted 1,3,5-Triazines as Histamine H4 Receptor Antagonists with Promising Activity In Vivo” (Molecules, 2023).

Data set [1] has as its target T1, human histamine H4 receptor (Homo sapiens, UniProt Q9H3N8).
T1 construct: made in house; host or cells: Sf9 cells (membrane preparations)
The settings on record: ref 57 (Grosicki et al.); read-out: hH4R Ki; cited from earlier work.

The target of data set [2] is T2, hH4R (Homo sapiens, UniProt Q9H3N8). Description: cAMP accumulation assay (LANCE Ultra cAMP, CHO-K1 cells stably expressing hH4R). The format is cell-based. Further details: expressed in transfected cells. As for the experimental part:
Intrinsic activity via the Gα subunit was measured using a LANCE Ultra cAMP detection kit and CHO-K1 cells stably expressing hH4R. Adenyl cyclase was stimulated by forskolin (10 µM).
Intrinsic activity in G protein-dependent pathway was measured with homogenous TR-FRET immunoassay, using LANCE Ultra cAMP kit and CHO-K1 H4R cell line or γ-irradiated recombinant CHO-K1 H4R cells (all from PerkinElmer). […] If the CHO-K1 H4R cell line was used it had been cultivated in DMEM/F12 10% FBS 400 µg/mL geneticin and passaged three times a week. […] The antagonist activity was measured in a white, opaque, 384-well microplate (PerkinElmer) with a total volume of 20 µL. […] After incubation, 5 µL of europium chelate-labelled cAMP tracer and 5 µl of ULight-labelled anti-cAMP mAb working solutions were added, mixed and incubated for 1 h. TR-FRET signal was read using a microplate reader (PerkinElmer, Waltham, MA, USA).
A general note: cAMP levels reflect the balance of adenylyl cyclase and phosphodiesterase activity.

Data set [3] concerns the target T2, hH4R. The data set is described as above. Further details: expressed in transfected cells. Type of data set: cell-based. The settings on record: antagonist mode.
The target in data set [4] is T2, hH4R. Nature of the data set: β-arrestin recruitment assay (LiveBLAzer, Tango-H4-bla U2OS cells). The format is cell-based. Set-up: expressed in transfected cells; host or cells: Tango-H4-bla U2OS cells. As for the experimental part: Compounds were tested using LiveBLAzer^TM assay and Tango-H4-bla U2OS cells, allowing the estimation of the percentage of β-arrestin recruitment in response to tested treatments.
All used media and reagents except DMSO and tested compounds were purchased from ThermoFisher Scientific, Waltham, MA, USA. DMSO was from CarlRoth (Karlsruhe, Germany) and histamine was from Sigma Aldrich (Darmstadt, Germany). […] The day before the experiment cells were collected from the culture flask with trypsin and seeded in 384 well black-wall, clear-bottom plate (PerkinElmer, Waltham, MA, USA) in concentration 10,000 cells/well in FreeStyle medium. After 24 h of incubation, the cells were checked under the microscope and the dilutions of tested compounds were prepared and added to the wells. In agonist mode compounds were added to the wells and plates were placed in the incubator (HERAcell240, Heraeus, Hanau, Germany) for 16 h. In antagonist mode, first, the compounds were added to the wells, plates were incubated for 30 min, then histamine solution (corresponding to EC80—500 nM) was added and plates were put in the incubator for 16 h. After this time β-lactamase substrate mixture was prepared and added to wells (8 µL/well). Cells were incubated for 2 h at room temperature in the dark then the signal was read using an EnSpire microplate reader (PerkinElmer, Waltham, MA, USA). Drawing of dose-dependent curves and IC50 calculation for compounds were made using GraphPad Prism 6 (GraphPad Software, San Diego, CA, USA).

Data set [5] concerns mice. Nature of the data set: Histamine-induced pruritus. Type of data set: in vivo. The conditions noted are these: 10 mg/kg, 60 min observation (control 62.11 ± 9.4). As for the experimental part: Intradermal injection of histamine induced scratching bouts in the amount of 62.11 ± 9.4. […].
(§1) The surface (around 2 cm^2) of the mice’s nape was shaved at least 2 days prior to experiments. On the day of the experiment, mice were individually placed in plastic chambers (15 × 15 × 30 cm) and after the 30 min habituation period, they were given an intradermal (i.d.) injection of histamine dihydrochloride (10 µmol/site) or chloroquine (CQ, 200 µg/site), which were dissolved in physiological saline and administrated in the constant volume of 20 μL. Immediately after the injection, scratching (series of movements considered as a single scratching bout) of the injected site by the hind paw was counted for 60 min or 30 min after histamine and CQ administration, respectively. Before pruritogens injection different groups of mice were treated i.p. with vehicle (10 mL/kg, negative control) or the dose–response of investigated compound.
(§2) Figure 9 The effect of compound 6 and reference compound pyrilamine (Pyr) on the number of scratching bouts during 60 min-long observation in histamine-induced pruritus (A) and 30 min-long observation in chloroquine-induced pruritus (B). The tested compound or vehicle (1% solution of Tween 80) was administered intraperitoneally (i.p.) 30 min before the intradermal (i.d.) injection of histamine or chloroquine. The results are presented as bar plots showing the mean ± SEM. Statistical analysis: one-way ANOVA followed by Dunnett’s post hoc test, * p < 0.05, ** p < 0.01, *** p < 0.001, n = 8–10 mice per group.

The subject of data set [6] is mice. Description: Chloroquine-induced pruritus. The format is in vivo. The settings on record: 10 mg/kg, 30 min observation.
Description: When comparing the activity of the tested in both used models, it should be noted that the efficacy (higher maximal effect) and potency (lower doses needed to obtain the same result) of the compound were better in histamine-induced pruritus. Nevertheless, compound 6 was also active in histamine-independent itch, which contrasts with the activity of pyrilamine representing a commonly used drug in the treatment of pruritus. […] The wide spectrum of antipruritic activity of compound 6 is very promising, considering that histamine-independent itch is still a crucial clinical problem in pruritus treatment.
as §1, §2

T2 sequence (Q9H3N8 whole entry): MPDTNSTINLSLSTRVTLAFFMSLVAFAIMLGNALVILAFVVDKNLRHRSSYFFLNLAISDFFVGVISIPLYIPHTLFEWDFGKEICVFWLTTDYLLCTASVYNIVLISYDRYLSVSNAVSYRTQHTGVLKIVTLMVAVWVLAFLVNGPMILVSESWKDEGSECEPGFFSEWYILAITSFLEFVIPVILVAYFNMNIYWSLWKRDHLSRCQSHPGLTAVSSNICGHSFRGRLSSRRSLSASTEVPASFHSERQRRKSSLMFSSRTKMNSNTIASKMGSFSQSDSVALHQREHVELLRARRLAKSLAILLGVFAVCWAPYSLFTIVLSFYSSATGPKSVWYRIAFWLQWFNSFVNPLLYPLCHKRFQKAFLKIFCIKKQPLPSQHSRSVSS
T1 sequence (Q9H3N8 whole entry): as above

As for `CN1CCN(c2nc(N)nc(CC3=CCCCC3)n2)CC1` [Compound 8, 4-(Cyclohexenylmethyl)-6-(4-methylpiperazin-1-yl)-1,3,5-triazin-2-amine], the melting point – broadly, the temperature of the solid-liquid transition – was 149 to 153 °C. Moreover, the inhibitory constant (Ki) (usually the dissociation constant of the complex between target and ligand, obtained from inhibition or displacement) in data set [1] is 4.7 µM. Further, the IC50 (in general, the concentration that inhibits the measured activity by half) on hH4R [2] (antagonist mode, forskolin 10 µM, histamine 140 nM, CHO-K1 hH4R cells, read-out: cAMP hH4R IC50 ± SEM) was 0.743 ± 0.03 µM. Besides, the Kb on hH4R [2] (calculated from IC50 by Leff–Dougall variant of Cheng–Prusoff equation, read-out: pKb cAMP ± SEM (converted)) was 0.263 µM. The “cAMP hH4R % of max. Antagonist Activity at 10 µM” value at hH4R [3] came out at 98%. In addition, the half-maximal inhibitory concentration (IC50) at hH4R [4] (antagonist mode, histamine 500 nM (EC80), Tango-H4-bla U2OS cells, read-out: β-arrestin hH4R IC50 ± SEM) is 0.041 ± 0.006 µM. In addition, the “β-arrestin hH4R % of max. Antagonist Activity at 10 µM” value on hH4R [4] (at 10 µM, antagonist mode) came out at 102%. The Kb on hH4R [4] (calculated from IC50 by Leff–Dougall variant of Cheng–Prusoff equation, read-out: pKb β-arrestin ± SEM (converted)) was 0.00676 µM.

On to `COc1ccc(CN(CCN(C)C)c2ccccn2)cc1` [pyrilamine, reference compound], for which, in the data set with mice [5], the “Number of scratch bouts, histamine-induced pruritus” value came out at 28.56 ± 3.55 scratch bouts. Also, the “Effect on scratching behaviour, chloroquine-induced pruritus” value with mice [6] is “did not significantly reduce scratching behaviour”.
